We go through 23 compounds from PMC8480759, “Inhibitors of histone deacetylase 6 based on a novel 3-hydroxy-isoxazole zinc binding group” (Journal of Enzyme Inhibition and Medicinal Chemistry, 2021).

The subject of data set [1] is HDAC6. On the set-up: method as in ChEMBL (accessed on May 29th, 2020). As to conditions: ChEMBL ligands most similar to compound 13; ref ChEMBL (accessed on May 29th, 2020); cited from earlier work.
The next data set relates to DU145 cells. The data set is described as follows: Anti-proliferative assay (MTT cell viability). Format: cell-based, human. As to conditions: for effect on proliferation rate of DU145 cells: 50 µM, MTT, 24, 48, 72 h. As for the experimental part: (§1) The results corroborate the inhibitory activity of 17, 23, 25 and 27 at concentrations lower than 10 µM. […] HDACs contribution to CRPC is known[20] and the possibility to arrest CRPC proliferation by acting on HDAC targets is expanding in the scientific literature[21]^,[22]. After administration of the selected compounds for 24 h at 10 µM concentration, the effect on the acetylation levels of histone H3 and α-tubulin (respectively, HDAC1 and HDAC6 targets) was investigated. […] Lastly, in the same cell line, the anti-proliferative effect was measured in dose and time dependent manner (Figure S4).
Figure S4. Cell viability assay (MTT) of the tested compounds in human prostate cancer cell lines (DU145). Cells were treated with 4 increasing concentrations (1, 5, 10, and 50 µM) of tested compounds, monitored at 24, 48, and 72 hours and tested with SAHA and Tubastatin A as reference compounds. Data are expressed as mean ± SEM. […]
1.5 Anti-proliferative assay
Cell viability was determined on DU145 cell line using Thiazolyl Blue Tetrazolium Bromide [3-(4,5-dimethylthiazol-2-yl)-2,5-diphenyltetrazolium bromide] (MTT; Sigma-Aldrich) assay after treatment with new compounds at indicated concentrations. A total of 2 × 10^4 cells/well were plated in a 96-well plate and treated, in duplicates, with new compounds at different concentrations for 24, 48, and 72 hours. Absorbance was read at a wavelength of 570 nm with a TECAN M-200 reader (Tecan, Männedorf, Switzerland).

The target of data set [2] is T1, HDAC6 (Homo sapiens, UniProt Q9UBN7).
T1 sequence (Q9UBN7 1-1215): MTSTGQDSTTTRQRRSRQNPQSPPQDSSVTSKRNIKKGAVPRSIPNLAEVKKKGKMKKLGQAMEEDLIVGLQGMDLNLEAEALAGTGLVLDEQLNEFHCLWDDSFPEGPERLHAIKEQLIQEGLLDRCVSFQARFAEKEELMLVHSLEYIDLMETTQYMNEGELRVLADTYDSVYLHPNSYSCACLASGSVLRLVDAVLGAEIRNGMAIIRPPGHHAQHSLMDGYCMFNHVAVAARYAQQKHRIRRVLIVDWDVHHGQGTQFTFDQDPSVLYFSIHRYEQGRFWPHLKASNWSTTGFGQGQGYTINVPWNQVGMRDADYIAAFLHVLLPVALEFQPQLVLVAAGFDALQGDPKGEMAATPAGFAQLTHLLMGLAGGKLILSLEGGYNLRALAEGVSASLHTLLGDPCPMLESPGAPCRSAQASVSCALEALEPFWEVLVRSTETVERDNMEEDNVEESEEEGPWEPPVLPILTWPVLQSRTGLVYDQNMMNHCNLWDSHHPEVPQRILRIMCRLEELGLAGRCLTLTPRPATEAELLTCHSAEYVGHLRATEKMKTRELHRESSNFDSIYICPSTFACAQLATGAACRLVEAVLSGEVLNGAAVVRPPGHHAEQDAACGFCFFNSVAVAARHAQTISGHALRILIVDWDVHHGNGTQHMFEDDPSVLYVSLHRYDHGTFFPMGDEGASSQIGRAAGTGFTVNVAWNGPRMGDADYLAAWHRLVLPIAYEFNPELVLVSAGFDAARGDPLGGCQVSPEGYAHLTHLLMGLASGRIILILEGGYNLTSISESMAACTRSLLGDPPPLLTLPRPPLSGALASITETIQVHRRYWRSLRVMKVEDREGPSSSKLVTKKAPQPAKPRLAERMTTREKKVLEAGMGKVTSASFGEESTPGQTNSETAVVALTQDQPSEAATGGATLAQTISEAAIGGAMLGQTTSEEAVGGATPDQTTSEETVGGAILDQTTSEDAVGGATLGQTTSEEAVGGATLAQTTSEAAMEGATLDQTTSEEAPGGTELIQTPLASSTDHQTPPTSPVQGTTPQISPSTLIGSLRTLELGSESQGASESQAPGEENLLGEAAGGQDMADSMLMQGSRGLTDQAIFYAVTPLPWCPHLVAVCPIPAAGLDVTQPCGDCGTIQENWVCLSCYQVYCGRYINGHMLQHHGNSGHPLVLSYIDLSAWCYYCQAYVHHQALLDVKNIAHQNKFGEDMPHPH
The data set is described as follows: In vitro HDAC6 fluorogenic enzymatic assay. To be noted: for IC50: recombinant human HDAC6, dose-response 300 µM to 135 nM; for HDAC6 activity at the highest tested concentration: 300 µM, remaining enzyme activity, called inactive. On the set-up: purchased BPS Bioscience #50076 (Fluorogenic Assay Kit). Format: biochemical.

Data set [3] deals with T1, HDAC6. The data set is described as follows: HDAC6 assay with acetylated p53 peptide (residues 379–382, RHKKAc-AMC) as substrate. It counts as biochemical.
Data set [4] relates to acetylation levels of histone H3 (HDAC1 target) in DU145 cells. The data set is described as follows: Western blot of histone H3 acetylation in DU145 cells. It counts as cell-based, human. As to conditions: 24 h, 10 µM. The procedure:
as §1
Figure S3. Western blotting analysis of the tested and reference compounds SAHA and Tubastatin A on acetylation levels of histone H3 and α-tubulin in DU145 cells. GAPDH and H4 were used as a loading control. Densitometric values were analyzed using ImageJ Software and are reported on the top of bands as the ratio between loading control and acetylated target.
(1 picture or pasted object on this page, not shown here) […]
1.4 Western blot analysis
The prostate cancer cell line DU145 (ATCC) was grown in RPMI medium (Euroclone, Milan, Italy) with 10% fetal bovine serum (Euroclone), 2 mM L-glutamine (Euroclone), and antibiotics (100 U/mL penicillin, […] streptomycin) (Euroclone). Cells were stimulated with drugs for […]
Total Protein Extraction and western blot
After the induction with the test compounds at the indicated times and concentrations, DU145 cells were then harvested, washed with phosphate-buffered saline (PBS) (Euroclone), and lysed for 15 min at 4 °C in lysis extraction buffer with protease and phosphatase inhibitors (50 mM Tris -HCl pH 8.0, 150 mM NaCl, 1% NP40, 10 mM sodium fluoride, 0.1 mM sodium orthovanadate, […] phenylmethylsulfonyl fluoride 58 (PMSF), 20 g/mL aprotinin, […] leupeptin, […] antipain, 10 mM p -nitrophenyl phosphate, […] pepstatin A and 20 nM okada ic acid). Cells were vortexed then centrifuged at 13000 rpm for 30 min at 4 °C. Bradford assay (Biorad, Italy) was used to quantify protein concentration. […] The immune complexes were first detected with horseradish peroxidase-conjugated species-specific secondary antiserum (Bio-Rad Laboratories, Milan, Italy), and then by an enhanced chemiluminescence reaction (Bio-Rad Laboratories, Milan, Italy). […]
were harvested and washed twice with cold 1× PBS and lysed in Triton extraction buffer (TEB; PBS containing 0.5% Triton X 100 (v/v), 2 mM PMSF, and 0.02% (w/v) NaN3) for 10 min on ice, with gentle stirring. […] The samples were then centrifuged at 2000 rpm for 10 min at 4 °C; the concentration of protein in the supernatant was determined […]
using a Bradford assay (Bio-Rad, CA, USA). […] Semi-quantitative analysis was performed using ImageJ software. […]

A short description of data set [5]: Storage stability at solid state. It counts as physicochemical. To be noted: room temperature and −20 °C. The text has this: In a recent study, we described the effect of different linker chemotypes on the potency and selectivity of a series of HDACi carrying a hydroxamate ZBG[6]. […] Being constituted by a small heteroaromatic ring with hydrogen bond acceptor and donor atoms, we hypothesised that the 3-hydroxy-isoxazole moiety could satisfy the pharmacophore requirements necessary for the coordination of the catalytic zinc ion of HDAC6. Therefore, in this work we investigated a series of 3-hydroxy-isoxazole derivatives bearing different aromatic or heteroaromatic linkers and various cap groups.

As usually defined, the IC50 is the concentration that gives 50% inhibition. A word on the melting point: it is the temperature, or range, at which the solid turns liquid.

Each structure is given as a SMILES string.

Turning to `O=C(NO)C1=CCCC1` [CHEMBL2333346], the IC50 in the data set with HDAC6 [1] was 0.03 µM.

Consider `Oc1cc(-c2ccc(OCc3ccccc3)cc2)on1` [Compound 17], for which the “effect on proliferation rate of DU145 cells” value in the data set with DU145 cells is “reduced the proliferation rate”. Also, the IC50 on HDAC6 [2] stood at 1.3 µM. The “concentration showing inhibitory activity on HDAC6” value at HDAC6 [3] is “below 10 µM”. Also, the “effect on acetylation levels of histone H3” value in data set [4] is on record as “no effect”. With `O=C(O)c1cc(-c2ccccc2)on1` [Compound 29, 5-phenylisoxazole-3-carboxylic acid], at HDAC6 [2], the “HDAC6 activity at the highest tested concentration” value (from here on “HDAC6 activity”) was “more than 55%” and the IC50 was greater than 300 µM. For the same compound, the “HDAC6 inhibition (in words)” value on HDAC6 [2] (in vitro assays, Table 1) is “inactive”. In the case of `Oc1cc(-c2ccc(Br)o2)on1` [Compound 21], the IC50 at HDAC6 [2] was determined as 29.6 µM.

For `Oc1cc(-c2ccc3ccccc3c2)on1` [Compound 19], at HDAC6 [2], the “HDAC6 activity” value was “more than 55%” and the IC50 is greater than 300 µM. In the case of `O=C(NO)C1CCCCC1` [CHEMBL2333345], the IC50 in the data set on HDAC6 [1] was 0.376 µM. As for `COc1ccc(-c2cc(O)no2)cc1` [Compound 16], on HDAC6 [2], the IC50 is greater than 300 µM. `O=c1cc(-c2ccccc2)o[nH]1` [Compound 13, 3-hydroxy-5-phenyl-isoxazole]: at HDAC6 [2], the IC50 is 98.1 µM. In addition, the stability on storage result in data set [5] is “stable”. In the case of `Oc1cc(-c2cccc(Br)c2)on1` [Compound 22], the IC50 on HDAC6 [2] was 73.3 µM.

As to `Cc1cccc(C(=O)NO)c1` [CHEMBL2381522], in the data set with HDAC6 [1], the IC50 is 0.65 µM. On to `Oc1cc(-c2cccc3ccccc23)on1` [Compound 20], for which, on HDAC6 [2], the “HDAC6 activity” value is “more than 55%” and the IC50 is greater than 300 µM.

Regarding `Oc1cc(-c2ccc(Br)cn2)on1` [Compound 28], the IC50 on HDAC6 [2] is 82.3 µM.

`O=C(C#Cc1ccccc1)NO` [Compound 12, N-hydroxy-3-phenyl-propiolamide] displayed a melting point of 174 to 176 °C. Also, in data set [5], the stability on storage entry is given as “converted into 13 over time”.

`O=C(NO)C1=CCCCC1` [CHEMBL2333344]: in the data set with HDAC6 [1], the IC50 was 0.012 µM. On to `CNC(=O)c1ccc(C(=O)NO)cc1` [CHEMBL2333343], for which, in the data set with HDAC6 [1], the IC50 was 0.028 µM. As to `Oc1cc(-c2ccco2)on1` [Compound 26], at HDAC6 [2], the IC50 is greater than 100 µM. Turning to `Oc1cc(-c2ccc(OCc3ccc(Cl)c(Cl)c3)cc2)on1` [Compound 27], in the data set on DU145 cells, the “effect on proliferation rate of DU145 cells” value is “reduced the proliferation rate”. Further, in the data set on DU145 cells (DU145, late phases, lowest concentrations (tested 1, 5, 10, 50 µM)), the “anti-proliferative activity at the lowest concentrations” value is “exerted anti-proliferative activity”. For the same compound, on HDAC6 [2], the IC50 amounted to 8.2 µM. Further, on HDAC6 [3], the “concentration showing inhibitory activity on HDAC6” value is recorded as “below 10 µM”. For the same compound, in data set [4], the “effect on acetylation levels of histone H3” value is listed as “no effect”. For `O=C(NO)c1ccccc1` [CHEMBL16300], the IC50 with HDAC6 [1] is 0.115 µM. For the compound `Oc1cc(-c2cccc(C(F)(F)F)c2)on1` [Compound 14], at HDAC6 [2], the IC50 is greater than 300 µM. On the same count and under the same terms, for `O=[N+]([O-])c1ccc(-c2cc(O)no2)cc1` [Compound 18] the value was 16.4 µM; for `Cc1ccc(-c2cc(O)no2)s1` [Compound 24], 21.9 µM. With `Oc1cc(-c2ccccc2Cl)on1` [Compound 15], the IC50 on HDAC6 [2] is greater than 300 µM.

As for `CNc1ccc(C(=O)NO)cc1` [CHEMBL3415449], in the data set with HDAC6 [1], the IC50 was 1.77 µM.
